Source: patent publication US20100016213A1, “USE OF A DITERPENOID COMPOUND FOR TREATING DIABETES” (National Taiwan University, priority 2008, published 2010)

How the values were obtained:
Format in all cases: in vivo
STZ-diabetic mice(IDDM) = test: Glycogen content in skeletal muscle, STZ-diabetic mice; details: 5 mg/kg i.p., 30 minutes after injection
Description: (§1) Normal, STZ-induced diabetic, and DIO-induced diabetic mice were intraeritoneally injected with borapetoside C (5 mg/kg) and Actrapid (0.5 IU/kg; a short-acting insulin provided by Novo Nordisk) or metformin (500 mg/kg). Their glycogen contents in skeletal muscle were determined 30 minutes after injections.

normal mice [1] = test: Glycogen content in skeletal muscle, normal mice; details: 5 mg/kg i.p., 30 minutes after injection
Description: as §1

STZ-diabetic mice (IDDM) [2] = test: Plasma insulin levels before and after treatment (Insulin ELISA), STZ-diabetic mice; details: for Plasma insulin, Pre-treatment: before treatment; for Plasma insulin, post-treatment: one hour after treatment
Description: (§2) Normal mice, STZ-induced diabetic mice, and diet-induced diabetic mice were administered with a vehicle control, borapetoside A (5.0 mg/kg), borapetoside C (at various doses), glibenclamide (5.0 mg/kg) or metformin (500 mg/kg) by intraperitoneal injection. These mice were examined for their blood insulin levels before and one hour after treatment, using the Insulin(Rat) ELISA kit obtained from Penisula Lab. Inc., San Carlos, Calif., USA.

STZ-diabetic mice (IDDM) [3] = test: Lowering plasma glucose levels via oral administration, STZ-diabetic mice; details: oral 10.0 mg/kg, sixty minutes after treatment, mean ± SEM, six animals
Description: Normal, STZ-induced diabetic mice, and diet-induced diabetic mice were administered orally with 10.0 mg/kg borapetoside C, glibenclamide or metformin as a positive control, and a vehicle control. The plasma glucose levels of the treated mice were determined before and sixty minutes after treatment and the results thus obtained were shown in Table 3 below.

[4] = system: Diet-induced diabetic (NIDDM) mice; test: Plasma insulin levels before and after treatment (Insulin ELISA), diet-induced diabetic mice; details: for Plasma insulin, Pre-treatment: before treatment; for Plasma insulin, post-treatment: one hour after treatment
Description: as §2

normal mice [5] = test: Lowering plasma glucose level, intraperitoneal injection, normal mice; details: for Plasma Glucose Level, After / Plasma Glucose Level, Before: Normal mice; for Plasma Glucose Level, After: after treatment; for Plasma Glucose Level, Before: before treatment
Description: (§3) Normal and streptozotocin (STZ)-induced diabetic mice were administered with borapetoside A (5.0 mg/kg), borapetoside C (5.0 mg/kg), glibenclamide (5.0 mg/kg), metformin (500.0 mg/kg), or a vehicle control via intraperitoneal injection. STZ-induced diabetic mice are a well-known mouse model of type I diabetes (insulin dependent). See, e.g., Liu I M, et al., Neuroscience Letters 2001; 307: 81-84. Glibenclamide and metformin serve as two positive controls in this study.
(§4) The plasma glucose levels of the treated mice were determined before and one hour after administration. The activity of lowering plasma glucose levels (AL) is calculated following the formula: […]
(§5) Borapetoside C was administered to normal mice at 0.1, 1.0, 3.0, and 5.0 mg/kg and to STZ-diabetic mice at 0.1, 1.0, 3.0, and 5.0 mg/kg. The plasma glucose levels of the treated mice were examined before and after treatment.

[6] = system: DIO-induced diabetic mice; test: Insulin sensitivity: plasma glucose reduction with insulin plus borapetoside C or vehicle, DIO-induced diabetic mice; details: thirty minutes after insulin
Description: The effect of borapetoside C on insulin sensitivity was tested following the method described in Liu, et al., Clinical and Experimental Pharmacology and Physiology 2005; 32: 649-654. Normal mice (n=6), STZ-induced diabetic mice (n=5), and DIO-induced diabetic mice (n=7) were treated with insulin at various doses (i.e., 0.1 IU/kg, 0.5 IU/kg, and 1.0 IU/kg) together with either borapetoside C (0.1 mg/kg) or a vehicle control. Their plasma glucose levels were examined before and thirty minutes after insulin administration. The activity of lowering plasma glucose levels (AL) was calculated following the formula described in Example 2 above.

Normal ICR mice = test: Intraperitoneal glucose tolerance test (IPGTT), normal ICR mice; details: borapetoside C 5.0 mg/kg
Description: (§6) Normal ICR mice and DIO-induced diabetic mice, treated with borapetoside C (5.0 mg/kg), a vehicle control, or glibenclamide (positive control), were subjected to an intraperitoneal glucose tolerance test (IPGTT) as described in Lamont et al., Diabetes 2008; 57: 190-198. More specifically, glucose (2.0 mg/g body weight) was administered via IP injection to normal and DIO mice and blood samples were drawn from the treated mice before and 30, 60, 120, and 150 min after glucose administration for examination of glucose levels.
In normal mice treated with borapetoside C, the vehicle control, and glibenclamide, the basal plasma glucose concentrations were 106.8±4.7 mg/dL, 114.7±4.6 mg/dL, and 104.9±3.1 mg/dL, respectively. Thirty minutes after intraperitoneal glucose injection, the plasma glucose concentration was elevated to 346.2±14.7 mg/dL in vehicle-treated mice, to 292.9±10.9 mg/dL in borapetoside C-treated mice, or to 273.4±13.6 mg/dL in glibenclamide-treated mice.

[7] = system: DIO-induced diabetic mice; test: Intraperitoneal glucose tolerance test (IPGTT), DIO-induced diabetic mice; details: diet-induced diabetic mice, borapetoside C 5.0 mg/kg
Description: as §6
In diet-induced diabetic mice treated with borapetoside C, the vehicle control, and glibenclamide, the basal plasma glucose concentrations were 181.6±12.3 mg/dL, 183.1±2.9 mg/dL, and 185.3±7.7 mg/dL, respectively. Thirty minutes after intraperitoneal glucose injection, the plasma glucose concentration was elevated to 405.6±8.9 mg/dL in vehicle-treated mice, to 343.5±11.2 mg/dL in borapetoside C-treated mice, or to 339.1±15.4 mg/dL in glibenclamide-treated mice.

[8] = system: STZ-induced diabetic mice; test: Lowering plasma glucose level, intraperitoneal injection, STZ-induced diabetic mice (type I diabetes model); details: for Plasma Glucose Level, After: after treatment; for Plasma Glucose Level, Before: before treatment
Description: as §3, §4, §5

COC(=O)C1=CCC[C@H]2[C@]3(C)C[C@@H](c4ccoc4)OC(=O)[C@@H]3C[C@@H](O[C@@H]3O[C@H](CO)[C@@H](O)[C@H](O)[C@H]3O)[C@@]12C [borapetoside C]
Glycogen content (μmol/g wet weight) (STZ-diabetic mice(IDDM)): 23.2 ± 0.7 μmol/g wet weight
Glycogen content (μmol/g wet weight) (normal mice [1]): 25.1 ± 1.3 μmol/g wet weight
Plasma insulin, Pre-treatment (STZ-diabetic mice (IDDM) [2]; 0.1 mg/kg i.p.): 15.2 ± 0.8 pmol/L
Plasma insulin, post-treatment (STZ-diabetic mice (IDDM) [2]; 0.1 mg/kg i.p.): 16.3 ± 0.9 pmol/L
Plasma insulin, Pre-treatment (STZ-diabetic mice (IDDM) [2]; 0.5 mg/kg i.p.): 15.5 ± 0.6 pmol/L
Plasma insulin, post-treatment (STZ-diabetic mice (IDDM) [2]; 0.5 mg/kg i.p.): 15.9 ± 0.6 pmol/L
Plasma insulin, Pre-treatment (STZ-diabetic mice (IDDM) [2]; 1.0 mg/kg i.p.): 15.7 ± 0.8 pmol/L
Plasma insulin, post-treatment (STZ-diabetic mice (IDDM) [2]; 1.0 mg/kg i.p.): 15.9 ± 0.4 pmol/L
Plasma insulin, Pre-treatment (STZ-diabetic mice (IDDM) [2]; 3.0 mg/kg i.p.): 13.8 ± 1.6 pmol/L
Plasma insulin, post-treatment (STZ-diabetic mice (IDDM) [2]; 3.0 mg/kg i.p.): 14.8 ± 0.5 pmol/L
Plasma insulin, Pre-treatment (STZ-diabetic mice (IDDM) [2]; 5.0 mg/kg i.p.): 15.0 ± 0.5 pmol/L
Plasma insulin, post-treatment (STZ-diabetic mice (IDDM) [2]; 5.0 mg/kg i.p.): 14.4 ± 0.6 pmol/L
Activity of lowing plasma glucose levels (%) (STZ-diabetic mice (IDDM) [3]): 17.7 ± 1.7 %
Plasma insulin, Pre-treatment ([4]; 0.1 mg/kg i.p.): 110.3 ± 4.5 pmol/L
Plasma insulin, post-treatment ([4]; 0.1 mg/kg i.p.): 114.0 ± 7.6 pmol/L
Plasma insulin, Pre-treatment ([4]; 0.5 mg/kg i.p.): 116.5 ± 5.7 pmol/L
Plasma insulin, post-treatment ([4]; 0.5 mg/kg i.p.): 174.7 ± 4.8 pmol/L
Plasma insulin, Pre-treatment ([4]; 1.0 mg/kg i.p.): 111.1 ± 2.0 pmol/L
Plasma insulin, post-treatment ([4]; 1.0 mg/kg i.p.): 178.5 ± 14.6 pmol/L
Plasma insulin, Pre-treatment ([4]; 3.0 mg/kg i.p.): 113.2 ± 2.8 pmol/L
Plasma insulin, post-treatment ([4]; 3.0 mg/kg i.p.): 254.0 ± 23.4 pmol/L
Plasma insulin, Pre-treatment ([4]; 5.0 mg/kg i.p.): 107.4 ± 5.5 pmol/L
Plasma insulin, post-treatment ([4]; 5.0 mg/kg i.p.): 255.8 ± 15.9 pmol/L
Plasma Glucose Level, After (normal mice [5]; 0.1 mg/kg): 97.7 ± 6.2 mg/dL
Plasma Glucose Level, Before (normal mice [5]; 0.1 mg/kg): 99.7 ± 3.8 mg/dL
Plasma Glucose Level, After (normal mice [5]; 1.0 mg/kg): 82.6 ± 2.9 mg/dL
Plasma Glucose Level, Before (normal mice [5]; 1.0 mg/kg): 96.4 ± 4.2 mg/dL
Plasma Glucose Level, After (normal mice [5]; 3.0 mg/kg): 79.4 ± 6.9 mg/dL
Plasma Glucose Level, Before (normal mice [5]; 3.0 mg/kg): 96.3 ± 8.0 mg/dL
Plasma Glucose Level, After (normal mice [5]; 5.0 mg/kg): 67.0 ± 4.5 mg/dL
Plasma Glucose Level, Before (normal mice [5]; 5.0 mg/kg): 98.2 ± 3.9 mg/dL
Activities of Lowering Plasma Glucose Levels (AL) (normal mice [5]; normal mice, 5.0 mg/kg intraperitoneal injection, one hour after administration): 36.2 ± 5.6%
AL (%) ([6]; Borapetoside C 0.1 mg/kg together with Insulin 0.1 IU/kg): 24.0 ± 1.1%
AL (%) ([6]; Borapetoside C 0.1 mg/kg together with Insulin 0.5 IU/kg): 31.6 ± 1.6%
AL (%) ([6]; Borapetoside C 0.1 mg/kg together with Insulin 1.0 IU/kg): 42.5 ± 0.8 %
basal plasma glucose concentration (IPGTT) (Normal ICR mice; before glucose injection): 106.8 ± 4.7 mg/dL
plasma glucose levels at 60 min, 120 min, and 150 min versus control mice (IPGTT) (Normal ICR mice; glucose 2.0 mg/g IP): significantly lower
plasma glucose concentration thirty minutes after intraperitoneal glucose injection (IPGTT) (Normal ICR mice; glucose 2.0 mg/g body weight IP, vehicle 346.2±14.7): 292.9 ± 10.9 mg/dL
basal plasma glucose concentration (IPGTT) ([7]; before glucose injection): 181.6 ± 12.3 mg/dL
plasma glucose levels at 60 min, 120 min, and 150 min versus control mice (IPGTT) ([7]; glucose 2.0 mg/g IP): significantly lower
plasma glucose concentration thirty minutes after intraperitoneal glucose injection (IPGTT) ([7]; glucose 2.0 mg/g body weight IP, vehicle 405.6±8.9): 343.5 ± 11.2 mg/dL
Plasma Glucose Level, After ([8]; 0.1 mg/kg): 529.0 ± 14.7 mg/dL
Plasma Glucose Level, Before ([8]; 0.1 mg/kg): 580.0 ± 7.8 mg/dL
Plasma Glucose Level, After ([8]; 1.0 mg/kg): 472.2 ± 13.9 mg/dL
Plasma Glucose Level, Before ([8]; 1.0 mg/kg): 566.6 ± 11.4 mg/dL
Plasma Glucose Level, After ([8]; 3.0 mg/kg): 493.8 ± 15.3 mg/dL
Plasma Glucose Level, Before ([8]; 3.0 mg/kg): 572.2 ± 16.2 mg/dL
Activities of Lowering Plasma Glucose Levels (AL) ([8]; 5.0 mg/kg intraperitoneal injection, one hour after administration): 16.5 ± 2.9%
Plasma Glucose Level, After ([8]; 5.0 mg/kg): 481.1 ± 20.8 mg/dL
Plasma Glucose Level, Before ([8]; 5.0 mg/kg): 576.0 ± 11.1 mg/dL
